This is an account of results in article PMC8699718, “A structurally conserved site in AUP1 binds the E2 enzyme UBE2G2 and is essential for ER-associated degradation” (PLoS Biology, 2021).

This data set deals with NHK (Null Hong Kong variant of alpha1-antitrypsin). Put plainly: CHX chase: NHK degradation in HT1080 AUP1 KO cells. Format: cell-based, human. The method, then: Fig 1 The G2BR of AUP1 is required for ERAD of NHK. (A) HT1080 or cells in which HRD1 was knocked out by CRISPR/Cas-9 (HRD1 KO) were transfected with plasmid encoding carboxyl-terminally HA-tagged NHK. Cells were treated with CHX for the indicated times to inhibit protein synthesis and NHK-HA degradation monitored by western blot. GFP and HSP60 serve as transfection efficiency and gel loading controls, respectively. (B) HT1080 or cells in which either AUP1 or gp78 was knocked out (AUP1 KO or gp78 KO) were transfected with NHK-HA and their degradation assessed. (C) AUP1 KO cells were transfected with NHK-HA and empty vector or plasmid encoding carboxyl-terminally FLAG-tagged AUP1 and NHK degradation assessed. (D) Indicated cells were transfected with plasmid encoding carboxyl-terminally MYC-tagged INSIG-1 and assessed for INSIG-1 degradation. (E) Schematic representation of AUP1 in the ER membrane and deletion mutants used in subsequent experiments. Amino acid residues are numbered spanning each domain. (F) AUP1 KO cells were transfected with NHK-HA and plasmids encoding the indicated FLAG-tagged AUP1 WT or deletion mutants and assessed for NHK degradation. (G) HEK293 (Parental) or HEK293 AUP1 KO cells were assessed for degradation of NHK-HA. (H) HEK293 AUP1 KO cells were assessed for NHK-HA degradation as in (F). Markers represent apparent molecular weight in kDa. The data underlying this figure can be found in S1 Data. aa, amino acid; AUP1, ancient ubiquitous protein 1; CHX, cycloheximide; ER, endoplasmic reticulum; ERAD, endoplasmic reticulum–associated degradation; G2BR, UBE2G2 Binding Region; KO, knockout; NHK, Null Hong Kong; WT, wild type.
Fig 6 Disruption of UBE2G2:G2BR^AUP1 interaction abrogates AUP1 function in cells. (A) GST or indicated GST-AUP1 fusions (aa 292 to 410, expression shown in Coomassie-stained gel) were immobilized on glutathione beads and binding to ^35S-UBE2G2 was assessed as in Fig 3A. Mutations include 2A (R382A/Q383A), 2E (R382E/Q383E), and 5E (R382E/Q383E/K390E/R398E/R400E). (B) AUP1 KO cells were transfected with NHK-HA and forms of full-length AUP1-FLAG with the indicated point mutations from (A) and NHK degradation assessed by CHX chase. (C) Binding assay performed as in (A) with AUP1 mutants predicted to disrupt hydrophobic interactions with UBE2G2. (D) Cellular assay performed as in (B) with AUP1-FLAG mutants that disrupt interactions with UBE2G2 in vitro in (C). The data underlying this figure can be found in S1 Data. aa, amino acid; AUP1, ancient ubiquitous protein 1; CHX, cycloheximide; G2BR, UBE2G2 Binding Region; KO, knockout; WT, wild type.
Fig 8 Recruitment of UBE2G2 to the ER membrane and activation by G2BR^AUP1 is required for ERAD. (A) HT1080 or AUP1 KO cells were transfected with NHK-HA and either empty vector or MYC-UBE2G2 and NHK turnover assessed by CHX chase. (B) AUP1 KO cells were transfected with NHK-HA and GFP fusions of either a scrambled G2BR sequence (SCR) or G2BR^AUP1 and NHK turnover and levels of endogenous UBE2G2 assessed. Luciferase and β-actin served as transfection efficiency and gel loading controls, respectively. (C) AUP1 KO cells were transfected with NHK-HA, MYC-UBE2G2, and either GFP-SCR or GFP-G2BR^AUP1 and NHK turnover assessed. (D) Membrane fractionation was performed on HT1080 or AUP1 KO cells transfected with either empty vector or AUP1-FLAG and localization of UBE2G2 assessed by western blotting. Localization of β-actin (cytosol) and Calnexin (ER membrane) were used as controls for cytosolic (C) and membrane (M) fractions, respectively. (E) Membrane fractionation of AUP1 KO cells transfected with either MYC-UBE2G2 or TM-UBE2G2. (F) HT1080 cells were transfected with TM-UBE2G2 and its localization assessed by confocal microscopy. Images shown are from an optical section after deconvolution. HA-tagged UBE2J2, an ER-localized E2, serves as an ER marker. […]

Ends that are not written are not given here.

For the molecule “GFP-G2BR^AUP1: GFP fusion of AUP1 aa 378 to 404 (SSWARQESLQERKQALYEYARRRFTER; also: GFP fusion; UniProt Q9Y679 378-404, looked up, fragment)”, the “NHK degradation, soluble G2BR alone” value (GFP fusion overexpressed without UBE2G2, HT1080 AUP1 KO) is “insufficient to reconstitute NHK degradation”. Besides, the “NHK degradation, soluble G2BR with UBE2G2” value (GFP-G2BR^AUP1 co-expressed with MYC-UBE2G2, HT1080 AUP1 KO) is recorded as “did not restore NHK degradation”. Further, the “NHK degradation, soluble G2BR with TM-UBE2G2” value (GFP-G2BR^AUP1 co-expressed with TM-UBE2G2, HT1080 AUP1 KO) is recorded as “fully restored”.

B1: UBE2G2: ERAD ubiquitin-conjugating enzyme (E2); purified in vitro, N-terminally MYC-tagged in cells (protein)
chain: MAGTALKRLMAEYKQLTLNPPEGIVAGPMNEENFFEWEALIMGPEDTCFEFGVFPAILSFPLDYPLSPPKMRFTCEMFHPNIYPDGRVCISILHAPGDDPMGYESSAERWSPVQSVEKILLSVVSMLAEPNDESGANVDASKMWRDDREQFYKIAKQIVQKSLGL
On to B1, for which the “NHK degradation, UBE2G2 overexpression” value (UBE2G2 form transfected without G2BR, HT1080 AUP1 KO) is listed as “did not restore NHK degradation”.
